We go through three molecules from patent US20070082397A1, “Ex vivo progenitor and stem cell expansion for use in the treatment of disease of endodermally-derived organs” (priority 2003, published 2007).

The subject of series [1] is hepatocytes from adult mouse livers. Description: Primary adult mouse hepatocyte culture: expansion of hepatic stem (oval) cells. To be noted: for oval cells in hepatocyte culture: medium supplemented with 10 μM AGN 194310 or TEPA 10 μM, FIG. 1; for growth of cultured hepatocytes and appearance of hepatic stem (oval) cells: primary culture with EGF and HGF, TEPA 10 μM or AGN 194310 10 μM, compared with control cultures without additions. It counts as cell-based. The protocol: Intact livers were harvested from 3 week old VLVC female mice (Harlan Laboratories, Jerusalem, Israel), dissected and washed twice with DMEM (Beit Haemek, Israel), incubated with DMEM in the presence 0.05% collagenase for 30 minutes at 37° C., ground and passed through a 200 μm mesh sieve, yielding individual hepatocytes. Cells were washed twice and viability was ascertained with trypan blue. Cells were plated in collagen-coated, 35 mm tissue culture plates at a density of 4-×10^4 live cells/ml in F12 media (containing 15 mM Hepes, 0.1% glucose, 10 mM sodium bicarbonate, 100 units/ml penicillin-streptomycin, glutamine, 0.5 units/ml insulin, 7.5 m cg/ml hydrocortisone, and 10% fetal bovine serum). Medium was changed after 12 hours, the cells were washed twice with phosphate buffered saline (PBS) and new medium was added. Medium was changed twice a week.
Hepatocytes were also grown in the presence of Epidermal Growth Factor (EGF), Platelet-Derived Growth Factor β chain (PDGF-BB), Fibroblast growth Factors (FGF-4) and Hepatocyte Growth Factor (HGF), at 20-50 ng/ml each, for the entire culturing period according to the method of Schwartz et al. (Schwartz R E, Reyes M, Koodie L, Jiang Y, Blackstad M, Lund T, Lenvik T, Johnson S, Hu W S, Verfaillie C M. Multipotent adult progenitor cells from bone marrow differentiate into functional hepatocyte-like cells. J Clin Invest. 2002; 109 (10): 1291-302). Hepatocytes were also grown in serum free medium according to the method of Runge et al. (Runge D, Runge D M, Jager D, Lubecki K A, Beer Stolz D, Karathanasis S, Kietzmann T, Strom S C, Jungermann K, Fleig W E, Michalopoulos G K. Serum-free, long-term cultures of human hepatocytes: maintenance of cell morphology, transcription factors, and liver-specific functions. Biochem Biophys Res Commun. 2000; 269(1): 46-53).
In all of the above-mentioned hepatocytes culture conditions, cells are grown in the presence or absence of the retinoic acid antagonist AGN 194310 or the transition metal chelator tetraethylenepentamine TEPA) at 10^−5 M.
After a period of 3 weeks, cultures treated with 10^−5 M AGN 194310 or TEPA were detached with 0.25% trypsin, split and replated at a 1:2 ratio. The cells were visualized with Giemsa staining.
Murine hepatocyte cultures supplemented with EGF and HGF were evaluated as primary cultures, or following first and second passages. First passage cultures were grown for 2 weeks, split 1:2 and cells stained 8 days later. Second passage cultures were similarly grown for 2 weeks, split 1:2, and grown for an additional week, then split 1:4 and similarly stained 4 days later.
Hepatocytes and ex-vivo expanded cells were fixed in methanol directly in their cell culture plates and each procedure performed by standard procedures as outlined below.
Ex-vivo expanded cells and hepatocytes were stained with Giemsa stain, according to manufacturer's instructions (Shandon, Pittsburg, Pa.) for 4 minutes at room temperature, washed in buffer solution for 4 minutes, washed 3-4 times with rinse solution and visualized by light microscopy. Nuclei were stained with hematoxylin (Dako, Carpinteria, Calif.).

Series [2] deals with cord-blood-derived, bone marrow-derived, and peripheral blood derived stem and progenitor cells. The conditions noted are these: grown without a feeder layer; cited from earlier work.
Series [3] concerns erythroid progenitor cells, cultured mouse erythroleukemia cells, embryonal stem cells, and hepatocytes in primary hepatocyte culture. To be noted: cited from earlier work.
For series [4], the system named is stem and progenitor hematopoietic cells. To be noted: cited from earlier work.
For series [5] the following is noted: cited from earlier work.

“Also recorded” adds a separate entry of the source.

For the molecule `NCCNCCNCCNCCN` [TEPA, tetraethylenepentamine], in series [1], the “oval cells in hepatocyte culture” value is “abundance of oval cells; also recorded: increase in the proportion of oval cells”; the “growth of cultured hepatocytes and appearance of hepatic stem (oval) cells” value is “clearly induced growth of the cultured hepatocytes, and the appearance of hepatic stem (oval) cells”. In series [1] (primary hepatocyte cultures), the “persistence of treated hepatocyte cultures in culture” value is on record as “at least 3 weeks”. Further, the “fraction of CD34+ cells and their long-term clonability” value in series [2] is “greatly enhanced the fraction of CD34^+ cell and their long-term clonability”. The proliferation and differentiation entry in series [3] is given as “Facilitation of proliferation while inhibiting differentiation”. Moreover, in series [4], the “long term ex vivo stem cell proliferation and differentiation” value is recorded as “effective promotion of long term ex vivo stem cell proliferation, while inhibiting differentiation”.
As for `O=c1cc(N2CCOCC2)oc2c(-c3ccccc3)cccc12` [LY294002], the membrane permeability entry in series [5] is “membrane permeable”.
As to `CCc1ccc(C2=CC(C)(C)Sc3ccc(C#Cc4ccc(C(=O)O)cc4)cc32)cc1` [AGN 194310], in series [1], the “oval cells in hepatocyte culture” value is “abundance of oval cells”; the “growth of cultured hepatocytes and appearance of hepatic stem (oval) cells” value is “clearly induced growth of the cultured hepatocytes, and the appearance of hepatic stem (oval) cells”.
